# Measured values from ChEMBL document CHEMBL3885861, “Open TG-GATES”.
# Species: Rattus norvegicus
# Test: Open TG-GATES - Regimen: Single
# Format: toxicity, organism-based, Sprague-Dawley
# Design: regimen Single, gender Male, age 6 weeks
# Settings: in vivo, po, 0 mg/kg, route gavage, dose level Control; for APTT / Bas / Eos / Fbg / Hb / Ht / Lym / MCH / MCHC / MCV / Mono / Neu / PT / Plat / RBC / Ret / WBC: tissue Blood; for KIDNEY_L / KIDNEY_R / KIDNEY_TOTAL: tissue Kidney; for LIVER: tissue Liver; for A/G / ALP / ALT / AST / BUN / CRE / Ca / Cl / DBIL / GLC / IP / K / LDH / Na / PL / RALB / TBIL / TC / TG / TP / gamma-GTP: tissue Plasma
structure (smiles),measurement,setting,value
CC(=O)[C@@]1(O)CC[C@H]2[C@@H]3C=C(Cl)C4=CC(=O)CC[C@]4(C)[C@H]3CC[C@@]21C [CHLORMADINONE],TERMINAL_BW,3 h,219.1 g
same,APTT,3 h,23.2 s
same,Bas,3 h,0%
same,Eos,3 h,0.6%
same,Fbg,3 h,294.4 mg/dL
same,Hb,3 h,13.3 g/dL
same,Ht,3 h,41%
same,Lym,3 h,83.4%
same,MCH,3 h,20.4 pg
same,MCHC,3 h,32.3%
same,MCV,3 h,63.1 fL
same,Mono,3 h,2.2%
same,Neu,3 h,13.2%
same,PT,3 h,15.5 s
same,Plat,3 h,111.7 x10_4/uL
same,RBC,3 h,650.2 x10_4/ul
same,Ret,3 h,8%
same,WBC,3 h,78.7 x10_2/uL
same,KIDNEY_L,3 h,1 g
same,KIDNEY_R,3 h,1 g
same,KIDNEY_TOTAL,3 h,2 g
same,LIVER,3 h,10 g
same,A/G,3 h,1.2
same,ALP,3 h,1607 IU/L
same,ALT,3 h,42 IU/L
same,AST,3 h,77.8 IU/L
same,BUN,3 h,13.4 mg/dL
same,CRE,3 h,0.2 mg/dL
same,Ca,3 h,10.8 mg/dL
same,Cl,3 h,105.2 meq/L
same,DBIL,3 h,0 mg/dL
same,GLC,3 h,180 mg/dL
same,IP,3 h,8.1 mg/dL
same,K,3 h,4.3 meq/L
same,LDH,3 h,163.6 IU/L
same,Na,3 h,142.2 meq/L
same,PL,3 h,130.6 mg/dL
same,RALB,3 h,3 g/dL
same,TBIL,3 h,0.02 mg/dL
same,TC,3 h,71.8 mg/dL
same,TG,3 h,63.4 mg/dL
same,TP,3 h,5.4 g/dL
same,gamma-GTP,3 h,1.8 IU/L
same,TERMINAL_BW,6 h,216.7 g
same,APTT,6 h,23.8 s
same,Bas,6 h,0%
same,Eos,6 h,0.6%
same,Fbg,6 h,293.2 mg/dL
same,Hb,6 h,13.3 g/dL
same,Ht,6 h,41.1%
same,Lym,6 h,80.6%
same,MCH,6 h,20.6 pg
same,MCHC,6 h,32.3%
same,MCV,6 h,63.8 fL
same,Mono,6 h,2.8%
same,Neu,6 h,15.4%
same,PT,6 h,16.1 s
same,Plat,6 h,112 x10_4/uL
same,RBC,6 h,643.6 x10_4/ul
same,Ret,6 h,7.8%
same,WBC,6 h,116.8 x10_2/uL
same,KIDNEY_L,6 h,0.9 g
same,KIDNEY_R,6 h,1 g
same,KIDNEY_TOTAL,6 h,2 g
same,LIVER,6 h,9.2 g
same,A/G,6 h,1.2
same,ALP,6 h,1313.8 IU/L
same,ALT,6 h,40.8 IU/L
same,AST,6 h,74.6 IU/L
same,BUN,6 h,12.8 mg/dL
same,CRE,6 h,0.1 mg/dL
same,Ca,6 h,10.5 mg/dL
same,Cl,6 h,105.4 meq/L
same,DBIL,6 h,0 mg/dL
same,GLC,6 h,190.8 mg/dL
same,IP,6 h,9.3 mg/dL
same,K,6 h,4.4 meq/L
same,LDH,6 h,174.8 IU/L
same,Na,6 h,141.2 meq/L
same,PL,6 h,132.6 mg/dL
same,RALB,6 h,2.9 g/dL
same,TBIL,6 h,0.022 mg/dL
same,TC,6 h,73.2 mg/dL
same,TG,6 h,48.6 mg/dL
same,TP,6 h,5.3 g/dL
same,gamma-GTP,6 h,1.2 IU/L
same,TERMINAL_BW,9 h,217.4 g
same,APTT,9 h,23.3 s
same,Bas,9 h,0%
same,Eos,9 h,0.8%
same,Fbg,9 h,309.2 mg/dL
same,Hb,9 h,12.9 g/dL
same,Ht,9 h,39.8%
same,Lym,9 h,80%
same,MCH,9 h,20.5 pg
same,MCHC,9 h,32.3%
same,MCV,9 h,63.4 fL
same,Mono,9 h,2.6%
same,Neu,9 h,15.8%
same,PT,9 h,15.6 s
same,Plat,9 h,123.4 x10_4/uL
same,RBC,9 h,628 x10_4/ul
same,Ret,9 h,8.2%
same,WBC,9 h,100.7 x10_2/uL
same,KIDNEY_L,9 h,1 g
same,KIDNEY_R,9 h,1 g
same,KIDNEY_TOTAL,9 h,2 g
same,LIVER,9 h,9.4 g
same,A/G,9 h,1.3
same,ALP,9 h,1276.4 IU/L
same,ALT,9 h,36.8 IU/L
same,AST,9 h,70.2 IU/L
same,BUN,9 h,13.6 mg/dL
same,CRE,9 h,0.2 mg/dL
same,Ca,9 h,10.5 mg/dL
same,Cl,9 h,104.8 meq/L
same,DBIL,9 h,0 mg/dL
same,GLC,9 h,202.6 mg/dL
same,IP,9 h,9.6 mg/dL
same,K,9 h,4.1 meq/L
same,LDH,9 h,170 IU/L
same,Na,9 h,141.2 meq/L
same,PL,9 h,128.4 mg/dL
same,RALB,9 h,3 g/dL
same,TBIL,9 h,0.02 mg/dL
same,TC,9 h,70.4 mg/dL
same,TG,9 h,69.8 mg/dL
same,TP,9 h,5.3 g/dL
same,gamma-GTP,9 h,1.6 IU/L
same,TERMINAL_BW,24 h,233 g
same,APTT,24 h,23.5 s
same,Bas,24 h,0%
same,Eos,24 h,0.8%
same,Fbg,24 h,308.8 mg/dL
same,Hb,24 h,13.3 g/dL
same,Ht,24 h,40.9%
same,Lym,24 h,82.8%
same,MCH,24 h,20.5 pg
same,MCHC,24 h,32.5%
same,MCV,24 h,63.1 fL
same,Mono,24 h,2.2%
same,Neu,24 h,13.4%
same,PT,24 h,15.9 s
same,Plat,24 h,115.3 x10_4/uL
same,RBC,24 h,649.2 x10_4/ul
same,Ret,24 h,7.8%
same,WBC,24 h,120.1 x10_2/uL
same,KIDNEY_L,24 h,1 g
same,KIDNEY_R,24 h,1 g
same,KIDNEY_TOTAL,24 h,2 g
same,LIVER,24 h,11 g
same,A/G,24 h,1.2
same,ALP,24 h,1565 IU/L
same,ALT,24 h,45.4 IU/L
same,AST,24 h,73.6 IU/L
same,BUN,24 h,17.8 mg/dL
same,CRE,24 h,0.2 mg/dL
same,Ca,24 h,10.9 mg/dL
same,Cl,24 h,105.4 meq/L
same,DBIL,24 h,0 mg/dL
same,GLC,24 h,197.8 mg/dL
same,IP,24 h,7.3 mg/dL
same,K,24 h,4.7 meq/L
same,LDH,24 h,219 IU/L
same,Na,24 h,140.6 meq/L
same,PL,24 h,166 mg/dL
same,RALB,24 h,3 g/dL
same,TBIL,24 h,0.01 mg/dL
same,TC,24 h,85 mg/dL
same,TG,24 h,115 mg/dL
same,TP,24 h,5.5 g/dL
same,gamma-GTP,24 h,1 IU/L
